Measurements reported in PubChem BioAssay (NCI).
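How tested: cells in 96-well plates exposed to compound for 48 hours at five concentrations. GI50 = concentration required for 50% inhibition of growth. TGI: total growth inhibition.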

Experiments:
Assay in all cases: NCI anticancer screen, dose series, 48 h
M14 melanoma = test system: M14 melanoma
UO-31 renal = test system: UO-31 renal
HOP-92 NSCLC = test system: HOP-92 NSCLC
CAKI-1 renal = test system: CAKI-1 renal
OVCAR-3 ovarian = test system: OVCAR-3 ovarian
NCI-H460 lung = test system: NCI-H460 lung
A498 renal = test system: A498 renal
MDA-MB-435 = test system: MDA-MB-435
OVCAR-5 ovarian = test system: OVCAR-5 ovarian
SF-539 CNS = test system: SF-539 CNS
SW-620 colon = test system: SW-620 colon
SF-268 CNS = test system: SF-268 CNS
SN12C renal = test system: SN12C renal
HS 578T breast = test system: HS 578T breast
KM12 colon = test system: KM12 colon
NCI/ADR-RES ovarian = test system: NCI/ADR-RES ovarian
SR leukemia = test system: SR leukemia
OVCAR-8 ovarian = test system: OVCAR-8 ovarian
HCT-15 colon = test system: HCT-15 colon
SNB-75 CNS = test system: SNB-75 CNS
COLO 205 colon = test system: COLO 205 colon
SF-295 CNS = test system: SF-295 CNS
DU-145 prostate = test system: DU-145 prostate
MCF7 breast = test system: MCF7 breast
PC-3 prostate = test system: PC-3 prostate
BT-549 breast = test system: BT-549 breast
MOLT-4 leukemia = test system: MOLT-4 leukemia
ACHN renal = test system: ACHN renal
HT29 colon = test system: HT29 colon
NCI-H23 lung = test system: NCI-H23 lung
A549 NSCLC = test system: A549 NSCLC
UACC-62 melanoma = test system: UACC-62 melanoma
HOP-62 NSCLC = test system: HOP-62 NSCLC
RXF 393 renal = test system: RXF 393 renal
TK-10 renal = test system: TK-10 renal
HCT-116 colon = test system: HCT-116 colon
IGROV1 ovarian = test system: IGROV1 ovarian
OVCAR-4 ovarian = test system: OVCAR-4 ovarian
NCI-H522 lung = test system: NCI-H522 lung
SK-MEL-5 melanoma = test system: SK-MEL-5 melanoma
U251 CNS = test system: U251 CNS
SK-MEL-28 melanoma = test system: SK-MEL-28 melanoma
786-0 renal = test system: 786-0 renal
NCI-H226 lung = test system: NCI-H226 lung
MDA-MB-231 breast = test system: MDA-MB-231 breast
MALME-3M melanoma = test system: MALME-3M melanoma
HCC-2998 colon = test system: HCC-2998 colon
UACC-257 melanoma = test system: UACC-257 melanoma
T-47D breast = test system: T-47D breast
SNB-19 CNS = test system: SNB-19 CNS
RPMI-8226 leukemia = test system: RPMI-8226 leukemia
SK-OV-3 ovarian = test system: SK-OV-3 ovarian
HL-60(TB) leukemia = test system: HL-60(TB) leukemia

Question: With `Oc1ccc(-c2nc(-c3ccc4oc5ccc(-c6[nH]c(-c7ccc(O)cc7)nc6-c6ccccc6)cc5c4c3)c(-c3ccccc3)[nH]2)cc1` as the compound, how does the GI50 (M14 melanoma) read?
Answer: 3.9 µM

Question: What about the TGI (M14 melanoma) of the same compound?
Answer: > 100 µM

Question: And the GI50 (UO-31 renal)?
Answer: 6.96 µM

Question: What about the TGI (UO-31 renal) of the same compound?
Answer: 22.8 µM

Question: What about the GI50 (HOP-92 NSCLC) of the same compound?
Answer: 2.19 µM

Question: And the TGI (HOP-92 NSCLC)?
Answer: 6.53 µM

Question: What about the GI50 (CAKI-1 renal) of the same compound?
Answer: 13.7 µM

Question: And the TGI (CAKI-1 renal)?
Answer: 41.7 µM

Question: What about the GI50 (OVCAR-3 ovarian) of the same compound?
Answer: 4.3 µM

Question: What about the TGI (OVCAR-3 ovarian) of the same compound?
Answer: 15.2 µM

Question: And the GI50 (NCI-H460 lung)?
Answer: 3.01 µM

Question: And the TGI (NCI-H460 lung)?
Answer: 9.85 µM

Question: What about the GI50 (A498 renal) of the same compound?
Answer: 12.2 µM

Question: And the TGI (A498 renal)?
Answer: 26 µM

Question: What about the GI50 (MDA-MB-435) of the same compound?
Answer: 2.85 µM

Question: And the TGI (MDA-MB-435)?
Answer: > 100 µM

Question: What about the GI50 (OVCAR-5 ovarian) of the same compound?
Answer: 12.1 µM

Question: And the TGI (OVCAR-5 ovarian)?
Answer: 25.4 µM

Question: What about the GI50 (SF-539 CNS) of the same compound?
Answer: 4.17 µM

Question: What about the TGI (SF-539 CNS) of the same compound?
Answer: 21.3 µM

Question: And the GI50 (SW-620 colon)?
Answer: 2.95 µM

Question: And the TGI (SW-620 colon)?
Answer: 10.7 µM

Question: And the GI50 (SF-268 CNS)?
Answer: 5.57 µM

Question: What about the TGI (SF-268 CNS) of the same compound?
Answer: 65.3 µM

Question: And the GI50 (SN12C renal)?
Answer: 3.39 µM

Question: What about the TGI (SN12C renal) of the same compound?
Answer: 27 µM

Question: And the GI50 (HS 578T breast)?
Answer: 3.55 µM

Question: And the TGI (HS 578T breast)?
Answer: 68.7 µM

Question: What about the GI50 (KM12 colon) of the same compound?
Answer: 2.88 µM

Question: And the TGI (KM12 colon)?
Answer: 7.92 µM

Question: And the GI50 (NCI/ADR-RES ovarian)?
Answer: 16 µM

Question: What about the TGI (NCI/ADR-RES ovarian) of the same compound?
Answer: > 100 µM

Question: And the GI50 (SR leukemia)?
Answer: 1.98 µM

Question: And the TGI (SR leukemia)?
Answer: 5.17 µM

Question: And the GI50 (OVCAR-8 ovarian)?
Answer: 2.23 µM

Question: And the TGI (OVCAR-8 ovarian)?
Answer: 5.32 µM

Question: And the GI50 (HCT-15 colon)?
Answer: 3.68 µM

Question: What about the TGI (HCT-15 colon) of the same compound?
Answer: 29.1 µM

Question: What about the GI50 (SNB-75 CNS) of the same compound?
Answer: 8.69 µM

Question: What about the TGI (SNB-75 CNS) of the same compound?
Answer: 67.6 µM

Question: What about the GI50 (COLO 205 colon) of the same compound?
Answer: 3.09 µM

Question: And the TGI (COLO 205 colon)?
Answer: 8.18 µM

Question: And the GI50 (SF-295 CNS)?
Answer: 12.2 µM

Question: And the TGI (SF-295 CNS)?
Answer: 45.4 µM

Question: And the GI50 (DU-145 prostate)?
Answer: 4.83 µM

Question: And the TGI (DU-145 prostate)?
Answer: 20.6 µM

Question: And the GI50 (MCF7 breast)?
Answer: 2.99 µM

Question: And the TGI (MCF7 breast)?
Answer: 73.9 µM

Question: What about the GI50 (PC-3 prostate) of the same compound?
Answer: 2.93 µM

Question: And the TGI (PC-3 prostate)?
Answer: 13.5 µM

Question: And the GI50 (BT-549 breast)?
Answer: 18.8 µM

Question: And the TGI (BT-549 breast)?
Answer: 58.2 µM

Question: What about the GI50 (MOLT-4 leukemia) of the same compound?
Answer: 2.34 µM

Question: What about the TGI (MOLT-4 leukemia) of the same compound?
Answer: 7.09 µM

Question: What about the GI50 (ACHN renal) of the same compound?
Answer: 5.2 µM

Question: And the TGI (ACHN renal)?
Answer: 20.3 µM

Question: And the GI50 (HT29 colon)?
Answer: 3.8 µM

Question: And the TGI (HT29 colon)?
Answer: 11.3 µM

Question: And the GI50 (NCI-H23 lung)?
Answer: 5.2 µM

Question: And the TGI (NCI-H23 lung)?
Answer: 33.7 µM

Question: And the GI50 (A549 NSCLC)?
Answer: 4.26 µM

Question: And the TGI (A549 NSCLC)?
Answer: 25.5 µM

Question: What about the GI50 (UACC-62 melanoma) of the same compound?
Answer: 14.7 µM

Question: What about the TGI (UACC-62 melanoma) of the same compound?
Answer: 46.8 µM

Question: What about the GI50 (HOP-62 NSCLC) of the same compound?
Answer: 7.62 µM

Question: What about the TGI (HOP-62 NSCLC) of the same compound?
Answer: 42.3 µM

Question: And the GI50 (RXF 393 renal)?
Answer: 2.12 µM

Question: What about the TGI (RXF 393 renal) of the same compound?
Answer: 5.45 µM

Question: What about the GI50 (TK-10 renal) of the same compound?
Answer: 6.34 µM

Question: What about the TGI (TK-10 renal) of the same compound?
Answer: 19.2 µM

Question: What about the GI50 (HCT-116 colon) of the same compound?
Answer: 3.85 µM

Question: What about the TGI (HCT-116 colon) of the same compound?
Answer: > 100 µM

Question: And the GI50 (IGROV1 ovarian)?
Answer: 4.54 µM

Question: What about the TGI (IGROV1 ovarian) of the same compound?
Answer: 96.6 µM

Question: What about the GI50 (OVCAR-4 ovarian) of the same compound?
Answer: 18 µM

Question: What about the TGI (OVCAR-4 ovarian) of the same compound?
Answer: 96.9 µM

Question: And the GI50 (NCI-H522 lung)?
Answer: 2.95 µM

Question: And the TGI (NCI-H522 lung)?
Answer: 8.02 µM

Question: What about the GI50 (SK-MEL-5 melanoma) of the same compound?
Answer: 4.46 µM

Question: What about the TGI (SK-MEL-5 melanoma) of the same compound?
Answer: 75.5 µM

Question: And the GI50 (U251 CNS)?
Answer: 2.93 µM

Question: And the TGI (U251 CNS)?
Answer: 15 µM

Question: And the GI50 (SK-MEL-28 melanoma)?
Answer: 7.39 µM

Question: What about the TGI (SK-MEL-28 melanoma) of the same compound?
Answer: 40 µM

Question: What about the GI50 (786-0 renal) of the same compound?
Answer: 5.75 µM

Question: And the TGI (786-0 renal)?
Answer: 29.8 µM

Question: And the GI50 (NCI-H226 lung)?
Answer: 13.3 µM

Question: And the TGI (NCI-H226 lung)?
Answer: > 100 µM

Question: What about the GI50 (MDA-MB-231 breast) of the same compound?
Answer: 2.57 µM

Question: What about the TGI (MDA-MB-231 breast) of the same compound?
Answer: 7.46 µM

Question: And the GI50 (MALME-3M melanoma)?
Answer: 9.07 µM

Question: What about the TGI (MALME-3M melanoma) of the same compound?
Answer: 68 µM

Question: What about the GI50 (HCC-2998 colon) of the same compound?
Answer: 3.12 µM

Question: What about the TGI (HCC-2998 colon) of the same compound?
Answer: 9.69 µM

Question: What about the GI50 (UACC-257 melanoma) of the same compound?
Answer: 10.3 µM

Question: What about the TGI (UACC-257 melanoma) of the same compound?
Answer: 33.6 µM

Question: What about the GI50 (T-47D breast) of the same compound?
Answer: 4.66 µM

Question: What about the TGI (T-47D breast) of the same compound?
Answer: > 100 µM

Question: What about the GI50 (SNB-19 CNS) of the same compound?
Answer: 19.1 µM

Question: What about the TGI (SNB-19 CNS) of the same compound?
Answer: 83.5 µM

Question: And the GI50 (RPMI-8226 leukemia)?
Answer: 3.17 µM

Question: And the TGI (RPMI-8226 leukemia)?
Answer: > 100 µM

Question: And the GI50 (SK-OV-3 ovarian)?
Answer: 17 µM

Question: And the TGI (SK-OV-3 ovarian)?
Answer: 42.4 µM

Question: What about the GI50 (HL-60(TB) leukemia) of the same compound?
Answer: 2.79 µM

Question: What about the TGI (HL-60(TB) leukemia) of the same compound?
Answer: 8.09 µM
